In ChEMBL document CHEMBL5380834, “Design, Synthesis, and Biological Evaluation of Androgen Receptor (AR) Antagonist-Heat Shock Protein 90 (Hsp90) Inhibitor Conjugates for Targeted Therapy of Castration-Resistant Prostate Cancer” (J Med Chem, 2023):
Activity calls are given as the source filed them. No cut-off for these calls is given here.

Assays:
[1] = Toxicity in BALB/c nude mouse xenografted with human LNCaP cells assessed as animal weight loss at 5 mg/kg, ip administered once every 4th day for 3 weeks; format: organism-based; details: in vivo, 504 h
LNCaP [2] = assay: Induction of apoptosis in human LNCaP cells assessed as increase in caspase-3 level at 1 uM measured after 48 hrs by Western blot analysis; format: functional, cell-based
LNCaP [3] = assay: Induction of cell cycle arrest in human LNCaP cells assessed as accumulation of cells at G2/M phase at 100 to 1000 nM measured for 24 hrs by flow cytometry analysis; format: functional, cell-based; details: dose 100-1000 nM
[4] = target: T1, Androgen receptor (Homo sapiens) (UniProt P10275); assay: Induction of full length AR degradation in human RWPE-1 cells at 10 uM measured for 24 hrs by Western blot analysis; format: cell-based
T1 sequence (whole entry): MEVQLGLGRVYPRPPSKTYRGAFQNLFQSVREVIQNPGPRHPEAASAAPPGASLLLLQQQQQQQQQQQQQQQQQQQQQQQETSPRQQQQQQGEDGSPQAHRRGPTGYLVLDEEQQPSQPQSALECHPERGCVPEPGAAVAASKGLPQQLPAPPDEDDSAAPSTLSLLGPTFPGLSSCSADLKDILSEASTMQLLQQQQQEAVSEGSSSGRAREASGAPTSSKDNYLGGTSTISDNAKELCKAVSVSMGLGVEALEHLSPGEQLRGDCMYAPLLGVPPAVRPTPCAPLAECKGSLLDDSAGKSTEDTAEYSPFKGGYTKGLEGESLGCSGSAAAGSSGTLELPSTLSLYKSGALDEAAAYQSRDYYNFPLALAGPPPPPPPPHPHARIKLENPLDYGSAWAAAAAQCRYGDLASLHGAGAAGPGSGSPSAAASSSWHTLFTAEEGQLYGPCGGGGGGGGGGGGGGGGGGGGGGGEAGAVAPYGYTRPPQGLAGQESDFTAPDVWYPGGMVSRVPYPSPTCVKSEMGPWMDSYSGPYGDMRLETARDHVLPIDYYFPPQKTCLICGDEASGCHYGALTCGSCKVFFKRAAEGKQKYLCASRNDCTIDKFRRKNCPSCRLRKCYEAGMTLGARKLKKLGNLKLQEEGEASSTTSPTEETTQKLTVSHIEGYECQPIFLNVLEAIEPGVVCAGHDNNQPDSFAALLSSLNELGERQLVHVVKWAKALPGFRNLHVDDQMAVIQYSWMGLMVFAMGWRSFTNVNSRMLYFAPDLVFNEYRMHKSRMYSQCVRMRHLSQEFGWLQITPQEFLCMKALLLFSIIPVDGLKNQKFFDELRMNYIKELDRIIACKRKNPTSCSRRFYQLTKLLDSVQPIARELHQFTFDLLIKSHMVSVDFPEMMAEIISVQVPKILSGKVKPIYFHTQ

LNCaP [5] = assay: Induction of apoptosis in human LNCaP cells assessed as late apoptotic cells at 1000 nM measured for 48 hrs by flow cytometry assay (reference value: 1.29%); format: functional
LNCaP [6] = assay: Downregulation of AR-regulated PSA protein level in human LNCaP cells measured for 48 hrs in presence of AR agonist, R1881 in charcoal stripped serum by Western blot analysis; format: functional, cell-based; details: dose 300-1000 nM
CWR22R [7] = assay: Induction of apoptosis in human 22Rv1 cells assessed as late apoptotic cells at 1000 nM measured for 48 hrs by flow cytometry assay (reference value: 3.96%); format: functional
LNCaP [8] = assay: Induction of apoptosis in human LNCaP cells assessed as viable cells at 1000 nM measured for 48 hrs by flow cytometry assay (reference value: 96.9%); format: functional; details: read-out: Activity
CWR22R [9] = assay: Induction of cell cycle arrest in human 22Rv1 cells assessed as accumulation of cells at G2/M phase at 100 to 1000 nM measured for 24 hrs by flow cytometry analysis; format: functional, cell-based; details: dose 100-1000 nM
LNCaP [10] = assay: Induction of apoptosis in human LNCaP cells assessed as early apoptotic cells at 1000 nM measured for 48 hrs by flow cytometry assay (reference value: 1.48%); format: functional
CWR22R [11] = assay: Induction of apoptosis in human 22Rv1 cells assessed as early apoptotic cells at 100 nM measured for 48 hrs by flow cytometry assay (reference value: 4.59%); format: functional
[12] = Drug uptake in human 22Rv1 cells measured after 12 hrs by LC-MS/MS analysis; format: ADME, cell-based; details: cwr22r, 1 µM
[13] = target: T1, Androgen receptor (Homo sapiens); assay: Induction of full length AR degradation in human LNCaP cells assessed as maximum degradation at 100 nM measured after 12 hrs relative to control; format: cell-based
LNCaP [14] = assay: Induction of apoptosis in human LNCaP cells assessed as increase in PARP level at 1 uM measured after 48 hrs by Western blot analysis; format: functional, cell-based
CWR22R [15] = assay: Induction of apoptosis in human 22Rv1 cells assessed as increase in PARP level at 1 uM measured after 48 hrs by Western blot analysis; format: functional, cell-based
CWR22R [16] = assay: Induction of apoptosis in human 22Rv1 cells assessed as late apoptotic cells at 100 nM measured for 48 hrs by flow cytometry assay (reference value: 3.96%); format: functional
[17] = Toxicity in BALB/c nude mouse xenografted with human 22Rv1 cells assessed as animal weight loss at 5 mg/kg, ip administered once every 4th day for 3 weeks; format: organism-based, CWR22R; details: in vivo, 504 h
LNCaP [18] = assay: Cytotoxicity against AR-positive human LNCaP cells assessed as inhibition of cell growth incubated for 5 days in presence of AR agonist, R1881 in charcoal stripped serum by WST-1 assay; format: functional, cell-based; details: 120 h
LNCaP [19] = assay: Induction of apoptosis in human LNCaP cells assessed as necrotic cells at 1000 nM measured for 48 hrs by flow cytometry assay (reference value: 0.35%); format: functional
LNCaP [20] = assay: Induction of apoptosis in human LNCaP cells assessed as late apoptotic cells at 100 nM measured for 48 hrs by flow cytometry assay (reference value: 1.29%); format: functional
LNCaP [21] = assay: Induction of apoptosis in human LNCaP cells assessed as early apoptotic cells at 100 nM measured for 48 hrs by flow cytometry assay (reference value: 1.48%); format: functional
CWR22R [22] = assay: Induction of apoptosis in human 22Rv1 cells assessed as early apoptotic cells at 1000 nM measured for 48 hrs by flow cytometry assay (reference value: 4.59%); format: functional
CWR22R [23] = assay: Induction of apoptosis in human 22Rv1 cells assessed as viable cells at 1000 nM measured for 48 hrs by flow cytometry assay (reference value: 91.3%); format: functional; details: read-out: Activity
CWR22R [24] = assay: Induction of apoptosis in human 22Rv1 cells assessed as necrotic cells at 1000 nM measured for 48 hrs by flow cytometry assay (reference value: 0.19%); format: functional
CWR22R [25] = assay: Induction of apoptosis in human 22Rv1 cells assessed as necrotic cells at 100 nM measured for 48 hrs by flow cytometry assay (reference value: 0.19%); format: functional
CWR22R [26] = assay: Induction of apoptosis in human 22Rv1 cells assessed as viable cells at 100 nM measured for 48 hrs by flow cytometry assay (reference value: 91.3%); format: functional; details: read-out: Activity
[27] = Drug uptake in human 22Rv1 cells at 1 uM measured at 1 to 24 hrs by LC-MS/MS analysis; format: ADME, cell-based; details: cwr22r, time 1-24 hrs
[28] = test system: Androgen receptor (Homo sapiens), P10275 [UNDEFINED MUTATION]; assay: Induction of AR-V7 degradation in human 22Rv1 cells measured upto 24 hrs by Western blot analysis; format: cell-based; details: dose 1000.0 nM
LNCaP [29] = assay: Induction of apoptosis in human LNCaP cells assessed as viable cells at 100 nM measured for 48 hrs by flow cytometry assay (reference value: 96.9%); format: functional; details: read-out: Activity
LNCaP [30] = assay: Induction of apoptosis in human LNCaP cells assessed as necrotic cells at 100 nM measured for 48 hrs by flow cytometry assay (reference value: 0.35%); format: functional
CWR22R [31] = assay: Cytotoxicity against human 22Rv1 cells assessed as inhibition of cell growth incubated for 5 days in presence of AR agonist, R1881 by WST-1 assay; format: functional, cell-based; details: 22Rv1, 120 h
[32] = Cytotoxicity against human RWPE-1 cells assessed as inhibition of cell growth incubated for 5 days by CCK-8 assay; format: toxicity, cell-based
LNCaP [33] = assay: Downregulation of AR-regulated FKBP5 protein level in human LNCaP cells measured for 48 hrs in presence of AR agonist, R1881 in charcoal stripped serum by Western blot analysis; format: functional, cell-based; details: dose 300-1000 nM
LNCaP [34] = assay: Downregulation of AR-regulated TMPRSS2 protein level in human LNCaP cells measured for 48 hrs in presence of AR agonist, R1881 in charcoal stripped serum by Western blot analysis; format: functional, cell-based; details: dose 300-1000 nM
CWR22R [35] = assay: Induction of apoptosis in human 22Rv1 cells assessed as increase in caspase-3 level at 1 uM measured after 48 hrs by Western blot analysis; format: functional, cell-based
LNCaP [36] = assay: animal or person; details: Mus musculus, po, 504 h, read-out: TGI
Description: Antitumor activity against human LNCaP cells xenografted in BALB/c nude mouse assessed as inhibition of tumor growth at 5 mg/kg, po administered once every 4th day for 3 weeks

CWR22R [37] = assay: Antitumor activity against human 22Rv1 cells xenografted in BALB/c nude mouse assessed as downregulation of AR-FL level at 2.5 mg/kg, ip administered once every 4th day for 3 weeks; format: functional, organism-based
CWR22R [38] = assay: Antitumor activity against human 22Rv1 cells xenografted in BALB/c nude mouse assessed as downregulation of AR-V7 level at 2.5 mg/kg, ip administered once every 4th day for 3 weeks; format: functional, organism-based

CC(C)c1cc(-c2n[nH]c(=O)n2-c2ccc(CN3CCN(CC4CCN(CC5CCN(c6ncc(C(=O)N[C@H]7CC[C@H](Oc8ccc(C#N)c(Cl)c8)CC7)cn6)CC5)CC4)CC3)cc2)c(O)cc1O
Activity [1]: 10% | Activity (LNCaP [2]): Active | Activity (LNCaP [3]): Active | Activity [4]: inactive | Activity (LNCaP [5]): 6.91% | Activity (LNCaP [6]): Dose-Dependent Effect | Activity (CWR22R [7]): 16.1% | viability at 1 µM (LNCaP [8]): 87.1% | Activity (CWR22R [9]): Active | Activity (LNCaP [10]): 4.87% | Activity (CWR22R [11]): 6.96% | Drug uptake [12]: Dose-Dependent Effect | Activity [13]: > 90% | Activity (LNCaP [14]): Active | Activity (CWR22R [15]): Active | Activity (CWR22R [16]): 12.8% | Activity [17]: ~ 10% | IC50 (LNCaP [18]): 33.4 nM | Activity (LNCaP [19]): 1.13% | Activity (LNCaP [20]): 3.71% | Activity (LNCaP [21]): 4.05% | Activity (CWR22R [22]): 13.5% | viability at 1 µM (CWR22R [23]): 70.3% | Activity (CWR22R [24]): 0.085% | Activity (CWR22R [25]): 0.066% | viability at 0.1 µM (CWR22R [26]): 80.1% | Drug uptake [27]: Active | Activity [28]: Dose-Dependent Effect | viability at 0.1 µM (LNCaP [29]): 91.9% | Activity (LNCaP [30]): 0.32% | IC50 (CWR22R [31]): 27 nM | IC50 at 5 days [32]: 241 nM | Activity (LNCaP [33]): Dose-Dependent Effect | Activity (LNCaP [34]): Dose-Dependent Effect | Activity (CWR22R [35]): Active

CNC(=O)c1ccc(N2C(=S)N(c3ccc(C#N)c(C(F)(F)F)c3)C(=O)C2(C)C)cc1F [ENZALUTAMIDE]
Activity [1]: 10% | inhibition in vivo at 5 mg/kg (LNCaP [36]): 50% | IC50 (LNCaP [18]): 52 nM | Activity (CWR22R [37]): inactive | Activity (CWR22R [38]): inactive | IC50 (CWR22R [31]): > 1000 nM
